Read-outs that look alike come from different tables or passages of the source.
What was measured:
[1] = target: Cathepsin D (Homo sapiens (Human), UniProt P07339); experiment: Cathepsin D FP assay; assay type: biochemical; conditions: pH 4.5, read-out: CatD FP IC50
Description: (§1) BACE1 activity can be assessed in an AlphaScreen® assay. Compounds to be assessed (e.g. compounds as described in the above examples) are serially diluted 1:4 in DMSO, then plated by diluting 10 μL of compound with 40 μl of assay buffer (1×PBS, 0.01% Tween-20, pH 7.0, 0.05% BSA). The diluted compound is transferred (4 μL per well) to a 386 well assay plate and 4 μL of BACE1 enzyme ([…]) is added and incubated for 15 minutes. This assay uses a probe that is a BACE1 binding sight ligand linked to biotin, which can be displaced by test compound dependent on compound binding affinity. This of biotinylated probe (4 μL) is added and incubated for 1 hour, followed with 4 μL of donor and acceptor bead mixture and incubated for 2 hours. The fluorescent signal is read on a plate reader and the value as a function of compound concentration is used to determine the IC50. Compounds are also assessed for BACE1 and Cathepsin D activity using an FP Assay. Compounds to be assessed (e.g. compounds as described in the above examples) are serially diluted 1:3 with DMSO and each concentration point is transferred to a 96 well plate, 6 μL per well, followed by addition of 194 μL of assay buffer (100 mM sodium acetate, pH 4.5 with 0.001% Tween-20). A 10 μL compound sample from this plate is transferred to a well of a 384 well plate and combined with 10 μL per well of BACE1 enzyme (0.3 nM in assay buffer) or Cathepsin D enzyme (1.8 nM in assay buffer) and the plate is incubated at room temperature for 30 minutes.

[2] = test system: BACE1 inhibition in HEKp293 cells transfected with APP751 gene (SWE293); experiment: SWE293 cellular assay: reduction of Aβ peptide production, ELISA; assay type: cell-based; conditions: Homo sapiens, read-out: SWE293 ED50
Description: BACE1 inhibition is also assessed in a cellular assay. HEKp293 cells transfected with APP751 gene (SWE293, American Type Culture Collection CRL-1563) are used to assess compounds for reduction in levels of Aβ peptide production. SWE293 cell medium is DMEM supplemented with 10% fetal bovine serum and 2 mM L-glutamine, 1.0 mM sodium pyruvate, 25 mM Hepes Buffer, 0.4 mg/mL geneticin (G418, Gibco BRL 860-181IIJ). Cells are maintained diluting 1:10 for 4 days in T-150 flask and 35 mL of cell media. For plating, cells are rinsed with 5 mL of 1×PBS, trypsinized with 4 mL of 0.05% Tripsin for 1 minute, and 12 mL of cell media is added. These are centrifuged at 1000 rpm for 4 minutes and the media aspirated, then 8 mL of media per flask is added. Based on cell count, appropriate amounts of cell and cell media are combined, and 180 μl per well are plated (96 well) and the plates are incubated overnight at 37° C., 5% CO2. Compounds to be tested are serially diluted 1:3 in DMSO and twice in media (without G418) in V-bottom plates and incubated at room temperature. Plated cells are washed with media, 3×50 μL per well and 17 μL per well of appropriate dilution of compound is added. Plates are incubated for 2 hours, and the wash steps, compound addition and incubation are repeated. Sample is transferred to capture plate (prepared with 266 antibody, see e.g. Johnson-Wood et al., PNAS February 1997, 94: 1550-1555), along with a standard curve of Aβ-40. ELISA assay is used to assess Aβ levels, washing with TBS, 0.05% Tween20 pH 7.5, then adding 1.3 mg/mL 3D6 antibody 1:900 in specimen diluents with thimericol is added (100 μl per well) and incubated for 1 hour. Wash step is repeated and Streptavidin-AP diluted 1:1000 in specimen diluents with thimerisol is added (100 μL per well) and incubated for 1 hour. Wash step is repeated and fluorescent substrate is added, 100 μL per well and incubated for 10 minutes followed by reading the fluorescent signal on a plate reader.

[3] = target: T1, BACE1 (Homo sapiens (Human), UniProt P56817); experiment: BACE1 FP assay; assay type: biochemical; conditions: pH 4.5
T1 sequence (P56817 46-501): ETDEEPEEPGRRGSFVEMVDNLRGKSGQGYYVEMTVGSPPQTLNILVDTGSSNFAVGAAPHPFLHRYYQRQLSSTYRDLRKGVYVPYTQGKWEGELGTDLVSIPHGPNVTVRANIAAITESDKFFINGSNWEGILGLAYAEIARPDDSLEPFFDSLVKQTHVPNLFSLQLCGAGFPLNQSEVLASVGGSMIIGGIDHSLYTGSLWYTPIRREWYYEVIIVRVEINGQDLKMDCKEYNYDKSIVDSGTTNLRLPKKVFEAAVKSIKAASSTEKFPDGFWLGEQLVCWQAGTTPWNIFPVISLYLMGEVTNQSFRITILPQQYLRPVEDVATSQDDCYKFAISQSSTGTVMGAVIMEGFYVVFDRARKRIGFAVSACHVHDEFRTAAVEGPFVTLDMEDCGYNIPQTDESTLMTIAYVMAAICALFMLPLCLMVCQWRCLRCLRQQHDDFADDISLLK
Description: as §1

[4] = target: T1, BACE1; experiment: BACE1 AlphaScreen assay (displacement of biotinylated BACE1 binding site probe); conditions: read-out: BACE1 AS IC50
Description: as §1

[5] = dose at which Aβ level is reduced by 50%, HEKp293 SWE293 cells

Chain of Cathepsin D (P07339 65-412, species assumed): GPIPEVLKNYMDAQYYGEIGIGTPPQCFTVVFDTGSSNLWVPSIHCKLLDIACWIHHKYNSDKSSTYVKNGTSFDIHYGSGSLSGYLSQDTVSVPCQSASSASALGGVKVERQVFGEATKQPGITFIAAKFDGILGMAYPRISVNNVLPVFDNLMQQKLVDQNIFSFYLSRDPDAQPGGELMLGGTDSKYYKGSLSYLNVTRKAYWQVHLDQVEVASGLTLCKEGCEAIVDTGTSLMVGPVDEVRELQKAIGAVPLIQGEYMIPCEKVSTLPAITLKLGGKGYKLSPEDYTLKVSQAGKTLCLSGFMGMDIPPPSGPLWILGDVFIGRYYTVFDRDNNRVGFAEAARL

Structure (SMILES) | IC50 [1] | IC50 [2, 5] | IC50 [3] | IC50 [4] | IC50 [2]
C[C@@]1(c2cc(NC(=O)c3ncc(Cl)cc3F)ccc2F)CC2(CCC(F)(F)CC2)OC(N)=N1 [Compound 9-133, (S)—N-(3-(2-amino-9,9-difluoro-4-methyl-1-oxa-3-azaspiro[5.5]undec-2-en-4-yl)-4-fluorophenyl)-5-chloro-3-fluoropicolinamide] | > 30000 nM | 16 nM | 16 nM | 9 nM | –
CC1(c2cc(NC(=O)c3ccc(F)cn3)ccc2F)N=C(N)OC2(CCC2)C1(F)F (stereo not shown) [Compound 9-159, N-(3-(6-amino-9,9-difluoro-8-methyl-5-oxa-7-azaspiro[3.5]non-6-en-8-yl)-4-fluorophenyl)-5-fluoropicolinamide] | > 30000 nM | – | 210 nM | 40 nM | 225 nM
C[C@]1(c2cc(NC(=O)c3ccc(F)cn3)ccc2F)N=C(N)OC2(CCOCC2)C1(F)F [Compound 9-157, (R)—N-(3-(2-amino-5,5-difluoro-4-methyl-1,9-dioxa-3-azaspiro[5.5]undec-2-en-4-yl)-4-fluorophenyl)-5-fluoropicolinamide] | > 30000 nM | 166 nM | 300 nM | 45 nM | –
C[C@@]1(c2cc(NC(=O)c3ccc(Cl)cn3)ccc2F)CC2(CC2)OC(N)=N1 [Compound 9-154, (S)—N-(3-(5-amino-7-methyl-4-oxa-6-azaspiro[2.5]oct-5-en-7-yl)-4-fluorophenyl)-5-chloropicolinamide] | > 30000 nM | 20 nM | 113 nM | 7.5 nM | –
CC1(c2cc(NC(=O)c3ccc(F)cn3)ccc2F)N=C(N)OC2(CCOCC2)C1(F)F (stereo not shown) [Compound 9-155, N-(3-(2-amino-5,5-difluoro-4-methyl-1,9-dioxa-3-azaspiro[5.5]undec-2-en-4-yl)-4-fluorophenyl)-5-fluoropicolinamide] | > 30000 nM | 177 nM | 277 nM | 31 nM | –
C[C@@]1(c2cc(NC(=O)c3ccc(Cl)cn3)ccc2F)CC2(CCOCC2)SC(N)=N1 [Compound 9-151, (S)—N-(3-(2-amino-4-methyl-9-oxa-1-thia-3-azaspiro[5.5]undec-2-en-4-yl)-4-fluorophenyl)-5-chloropicolinamide] | > 30000 nM | 0.4 nM | 5 nM | 9.7 nM | –
CC1(c2cc(NC(=O)c3ccc(Cl)cn3)ccc2F)N=C(N)OC2(CCOCC2)C1(F)F (stereo not shown) [Compound 9-158, N-(3-(2-amino-5,5-difluoro-4-methyl-1,9-dioxa-3-azaspiro[5.5]undec-2-en-4-yl)-4-fluorophenyl)-5-chloropicolinamide] | 19600 nM | 182 nM | 94 nM | 15 nM | –
C[C@@]1(c2cc(NC(=O)c3ccc(Cl)cn3)ccc2F)CC2(CCOCC2)OC(N)=N1 [Compound 9-122, (S)—N-(3-(2-amino-4-methyl-1,9-dioxa-3-azaspiro[5.5]undec-2-en-4-yl)-4-fluorophenyl)-5-chloropicolinamide] | > 30000 nM | – | 59 nM | 12 nM | 4 nM
C[C@@]1(c2cc(NC(=O)c3ccc(C#N)cn3)ccc2F)CC2(CCC2)OC(N)=N1 [Compound 9-130, (S)—N-(3-(6-amino-8-methyl-5-oxa-7-azaspiro[3.5]non-6-en-8-yl)-4-fluorophenyl)-5-cyanopicolinamide] | > 30000 nM | 5.4 nM | 46 nM | 6 nM | –
C[C@@]1(c2cc(NC(=O)c3ccc(F)cn3)ccc2F)CC2(CCC2)OC(N)=N1 [Compound 9-126, (S)—N-(3-(6-amino-8-methyl-5-oxa-7-azaspiro[3.5]non-6-en-8-yl)-4-fluorophenyl)-5-fluoropicolinamide] | > 30000 nM | 80 nM | 321 nM | 11 nM | –
CC1(c2cc(NC(=O)c3ccc(F)cn3)ccc2F)CC2(CCOCC2)OC(N)=N1 (stereo not shown) [Compound 9-120, N-(3-(2-amino-4-methyl-1,9-dioxa-3-azaspiro[5.5]undec-2-en-4-yl)-4-fluorophenyl)-5-fluoropicolinamide] | > 30000 nM | 13 nM | 282 nM | 19 nM | –
C[C@@]1(c2cc(NC(=O)c3ccc(F)cn3)ccc2F)CC2(CCC(F)(F)CC2)OC(N)=N1 [Compound 9-123, (S)—N-(3-(2-amino-9,9-difluoro-4-methyl-1-oxa-3-azaspiro[5.5]undec-2-en-4-yl)-4-fluorophenyl)-5-fluoropicolinamide] | > 30000 nM | 19 nM | 270 nM | 8.7 nM | –
CC#Cc1cncc(-c2csc([C@]3(C)CC4(CCC(F)(F)CC4)OC(N)=N3)c2)c1 [Compound 8-110, (S)-9,9-difluoro-4-methyl-4-(4-(5-(prop-1-ynyl)pyridin-3-yl)thiophen-2-yl)-1-oxa-3-azaspiro[5.5]undec-2-en-2-amine] | 5570 nM | 305 nM | 960 nM | 26 nM | –
CC#Cc1cncc(-c2csc(C3(C)CC4(CCOCC4)OC(N)=N3)c2)c1 (stereo not shown) [Compound 8-102, 4-methyl-4-(4-(5-(prop-1-ynyl)pyridin-3-yl)thiophen-2-yl)-1,9-dioxa-3-azaspiro[5.5]undec-2-en-2-amine] | 4430 nM | – | 2290 nM | 69 nM | 365 nM
C[C@@]1(c2cc(NC(=O)c3ccc(Br)cn3)ccc2F)CC2(CCC(F)(F)CC2)OC(N)=N1 [Compound 9-136, (S)—N-(3-(2-amino-9,9-difluoro-4-methyl-1-oxa-3-azaspiro[5.5]undec-2-en-4-yl)-4-fluorophenyl)-5-bromopicolinamide] | > 30000 nM | – | 50 nM | 7 nM | 8.9 nM
C[C@@]1(c2cc(NC(=O)c3ccc(F)cn3)ccc2F)CC2(CCC2)SC(N)=N1 [Compound 9-144, (S)—N-(3-(6-amino-8-methyl-5-thia-7-azaspiro[3.5]non-6-en-8-yl)-4-fluorophenyl)-5-fluoropicolinamide] | > 30000 nM | 9 nM | 27 nM | 8 nM | –
CC1(c2cc(NC(=O)c3ccc(Cl)cn3)ccc2F)CC2(CCOCC2)OC(N)=N1 (stereo not shown) [Compound 9-121, N-(3-(2-amino-4-methyl-1,9-dioxa-3-azaspiro[5.5]undec-2-en-4-yl)-4-fluorophenyl)-5-chloropicolinamide] | > 30000 nM | – | 73 nM | 9 nM | 6 nM
CC1(c2cc(NC(=O)c3ccc(C#N)cn3)ccc2F)CC2(CCOCC2)OC(N)=N1 (stereo not shown) [Compound 9-139, N-(3-(2-amino-4-methyl-1,9-dioxa-3-azaspiro[5.5]undec-2-en-4-yl)-4-fluorophenyl)-5-cyanopicolinamide] | > 30000 nM | 5 nM | 48 nM | 9 nM | –
COc1cccnc1Nc1ccc(F)c([C@]2(C)CC3(CCOCC3)SC(N)=N2)c1 [Compound 13-182, (S)-4-(2-fluoro-5-(3-methoxypyridin-2-ylamino)phenyl)-4-methyl-9-oxa-1-thia-3-azaspiro[5.5]undec-2-en-2-amine] | 14700 nM | < 123 nM | 32 nM | 2 nM | –

From patent US9493485B2, “Spirocyclic dihydro-thiazine and dihydro-oxazine BACE inhibitors, and compositions and uses thereof” (Imago Pharmaceuticals, Inc., priority 2012, dated 2016)
